Test system: human cardiomyocytes

COc1cccc2c1C(=O)c1c(O)c3c(c(O)c1C2=O)C[C@@](O)(C(=O)CO)C[C@@H]3O[C@H]1C[C@H](N)[C@H](O)[C@H](C)O1 [free doxorubicin, (8S,10S)-10-(4-amino-5 hydroxy-6-methyl-tetrahydro-2H-pyran-2-yloxy)-6,8,11-trihydroxy-8-(2-hydroxyacetyl)-1-methoxy-7,8,9,10-tetrahydrotetracene-5,12-dione]
level of uptake into human cardiomyocytes: relatively much higher compared to both MM-302 and untargeted pegylated liposomal doxorubicin

Source: patent publication US9913901B2, “Combination therapy for treating HER2-positive cancers” (Merrimack Pharmaceuticals, Inc., priority 2012, dated 2018)
